# Reference: patent US7138361B2, “Herbicidal heterocycles” (E. I. du Pont de Nemours and Company, priority 2000, dated 2006)
# Key:
# Assay type in all cases: in vivo
# [1] = tested on: Surinam grass (Brachiaria decumbens); test: Test B postemergence; conditions: 13 to 15 days
# Method in brief: (§1)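 Preemergence: seeds planted and treated with test chemicals in non-phytotoxic solvent with surfactant; postemergence on plants 2–18 cm (1- to 4-leaf stage). Kept in greenhouse 13–15 days, then visually rated against controls on a 0 (no effect) to 100 (complete control) scale.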
# [2] = tested on: barnyardgrass (Echinochloa crus-galli); test: Test B postemergence; conditions: 13 to 15 days
# Method in brief: as §1
# [3] = tested on: blackgrass (Alopecurus myosuroides); test: Test B postemergence; conditions: 13 to 15 days
# Method in brief: as §1
# [4] = tested on: cocklebur (Xanthium strumarium); test: Test B postemergence; conditions: 13 to 15 days
# Method in brief: as §1
# corn (Zea mays) [5] = test: Test B postemergence; conditions: 13 to 15 days
# Method in brief: as §1
# [6] = tested on: crabgrass (Digitaria sanguinalis); test: Test B postemergence; conditions: 13 to 15 days
# Method in brief: as §1
# [7] = tested on: giant foxtail (Setaria faberii); test: Test B postemergence; conditions: 13 to 15 days
# Method in brief: as §1
# [8] = tested on: lambsquarters (Chenopodium album); test: Test B postemergence; conditions: 13 to 15 days
# Method in brief: as §1
# [9] = tested on: morning glory (Ipomoea hederacea); test: Test B postemergence; conditions: 13 to 15 days
# Method in brief: as §1
# [10] = tested on: pigweed (Amaranthus retroflexus); test: Test B postemergence; conditions: 13 to 15 days
# Method in brief: as §1
# [11] = tested on: velvetleaf (Abutilon theophrasti); test: Test B postemergence; conditions: 13 to 15 days
# Method in brief: as §1
# [12] = tested on: wheat (Triticum aestivum); test: Test B postemergence; conditions: 13 to 15 days
# Method in brief: as §1
# wild oat (Avena fatua) = test: Test B postemergence; conditions: 13 to 15 days
# Method in brief: as §1
# Sunflower [13] = test: Test C preemergence
# [14] = tested on: bermudagrass (Cynodon dactylon); test: Test C preemergence; conditions: for Plant response rating (0 to 100 where 0 is no effect and 100 is complete control), Bermudagrass: Rate 250 g/ha, visual evaluation after 12 to 14 days
# Method in brief: (§2)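 Response scores (0 no effect to 100 complete control) came from visual comparison with untreated controls 12 to 14 days after treatment. Preemergence application was made to seeded soil; postemergence, to plants at the 1- to 4-leaf stage.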
# corn (Zea mays) [15] = test: Test C preemergence; conditions: for Plant response rating (0 to 100), Corn: Rate 250 g/ha, visual evaluation after 12 to 14 days
# Method in brief: as §2
# [16] = tested on: giant foxtail (Setaria faberii); test: Test C preemergence; conditions: for Plant response rating (0 to 100), Foxtail, Giant: Rate 250 g/ha, visual evaluation after 12 to 14 days
# Method in brief: as §2
# [17] = tested on: johnsongrass (Sorghum halepense); test: Test C preemergence; conditions: for Plant response rating (0 to 100), Johnsongrass: Rate 250 g/ha, visual evaluation after 12 to 14 days
# Method in brief: as §2
# kochia (Kochia scoparia) = test: Test C preemergence; conditions: for Plant response rating (0 to 100), Kochia: Rate 250 g/ha, visual evaluation after 12 to 14 days
# Method in brief: as §2
# [18] = tested on: morningglory (Ipomoea hederacea); test: Test C preemergence; conditions: for Plant response rating (0 to 100), Morningglory: Rate 250 g/ha, visual evaluation after 12 to 14 days
# Method in brief: as §2
# [19] = tested on: velvetleaf (Abutilon theophrasti); test: Test C preemergence; conditions: for Plant response rating (0 to 100), Velvetleaf: Rate 250 g/ha, visual evaluation after 12 to 14 days
# Method in brief: as §2
# [20] = tested on: yellow nutsedge (Cyperus esculentus); test: Test C preemergence; conditions: for Plant response rating (0 to 100), Nutsedge: Rate 250 g/ha, visual evaluation after 12 to 14 days
# Method in brief: as §2
# Sunflower [21] = test: Test C preemergence; conditions: Rate 250 g/ha, visual evaluation after 12 to 14 days
# [22] = Rate 125 g/ha, scale 0 (no effect) to 100 (complete control)
# [23] = Rate 500 g/ha, scale 0 to 100, 0 is no effect, 100 is complete control
# [24] = Rate 62 g/ha, scale 0 to 100, 0 no effect, 100 complete control
# [25] = Preemergence, Rate 500 g/ha, scale 0 to 100
# [26] = preemergence, Rate 31 g/ha, scale 0 to 100
# [27] = preemergence, Rate 125 g/ha, scale 0 to 100, 0 no effect, 100 complete control
smiles,measurement,setting,value
CCC(CC)c1ccn(C2SCN(c3cccc(C(F)(F)F)c3)C2=O)n1 (stereo not shown) [Compound 25],"Plant response rating, Surinam grass",[1]; [22],0
same,"Plant response rating, Surinam grass",[1]; [23],40
same,"Plant response rating, Barnyardgrass",[2]; [22],100
same,"Plant response rating, Barnyardgrass",[2]; [23],100
same,"Plant response rating, Blackgrass",[3]; [22],0
same,"Plant response rating, Blackgrass",[3]; [23],0
same,"Plant response rating, Cocklebur",[4]; [22],60
same,"Plant response rating, Cocklebur",[4]; [23],70
same,"Plant response rating, Corn",corn (Zea mays) [5]; [22],0
same,"Plant response rating, Corn",corn (Zea mays) [5]; [23],60
same,"Plant response rating, Crabgrass",[6]; [22],60
same,"Plant response rating, Crabgrass",[6]; [23],90
same,"Plant response rating, Foxtail, Giant",[7]; [22],20
same,"Plant response rating, Foxtail, Giant",[7]; [23],80
same,"Plant response rating, Lambsquarters",[8]; [22],100
same,"Plant response rating, Lambsquarters",[8]; [23],100
same,"Plant response rating, Morningglory",[9]; [22],90
same,"Plant response rating, Morningglory",[9]; [23],100
same,"Plant response rating, Pigweed",[10]; [22],70
same,"Plant response rating, Pigweed",[10]; [23],100
same,"Plant response rating, Velvetleaf",[11]; [22],0
same,"Plant response rating, Velvetleaf",[11]; [23],20
same,"Plant response rating, Wheat",[12]; [22],0
same,"Plant response rating, Wheat",[12]; [23],0
same,"Plant response rating, Wild Oat",wild oat (Avena fatua); [22],0
same,"Plant response rating, Wild Oat",wild oat (Avena fatua); [23],0
same,"Plant response rating, Sunflower",Sunflower [13]; [24],30
same,"Plant response rating, Sunflower","Sunflower [13]; Rate 500 g/ha, scale 0 to 100",70
same,"Plant response rating, Bermudagrass",[14]; [25],100
same,"Plant response rating, Bermudagrass",[14]; [24],100
same,"Plant response rating, Bermudagrass",[14]; [26],90
same,"Plant response rating (0 to 100 where 0 is no effect and 100 is complete control), Bermudagrass",[14]; preemergence,100
same,"Plant response rating, Bermudagrass",[14]; [27],100
same,"Plant response rating, Corn",corn (Zea mays) [15]; [25],50
same,"Plant response rating, Corn",corn (Zea mays) [15]; [24],0
same,"Plant response rating, Corn",corn (Zea mays) [15]; [26],0
same,"Plant response rating (0 to 100), Corn",corn (Zea mays) [15]; preemergence,20
same,"Plant response rating, Corn",corn (Zea mays) [15]; [27],20
same,"Plant response rating, Foxtail, Giant",[16]; [25],90
same,"Plant response rating, Foxtail, Giant",[16]; [24],90
same,"Plant response rating, Foxtail, Giant",[16]; [26],20
same,"Plant response rating (0 to 100), Foxtail, Giant",[16]; preemergence,100
same,"Plant response rating, Foxtail, Giant",[16]; [27],70
same,"Plant response rating, Johnsongrass",[17]; [25],100
same,"Plant response rating, Johnsongrass",[17]; [24],70
same,"Plant response rating, Johnsongrass",[17]; [26],30
same,"Plant response rating (0 to 100), Johnsongrass",[17]; preemergence,90
same,"Plant response rating, Johnsongrass",[17]; [27],90
same,"Plant response rating, Kochia",kochia (Kochia scoparia); [25],100
same,"Plant response rating, Kochia",kochia (Kochia scoparia); [24],50
same,"Plant response rating, Kochia",kochia (Kochia scoparia); [26],60
same,"Plant response rating (0 to 100), Kochia",kochia (Kochia scoparia); preemergence,100
same,"Plant response rating, Kochia",kochia (Kochia scoparia); [27],100
same,"Plant response rating, Morningglory",[18]; [25],90
same,"Plant response rating, Morningglory",[18]; [24],20
same,"Plant response rating, Morningglory",[18]; [26],0
same,"Plant response rating (0 to 100), Morningglory",[18]; preemergence,100
same,"Plant response rating, Morningglory",[18]; [27],30
same,"Plant response rating, Velvetleaf",[19]; [25],20
same,"Plant response rating, Velvetleaf",[19]; [24],30
same,"Plant response rating, Velvetleaf",[19]; [26],0
same,"Plant response rating (0 to 100), Velvetleaf",[19]; preemergence,70
same,"Plant response rating, Velvetleaf",[19]; [27],0
same,"Plant response rating, Nutsedge",[20]; [25],0
same,"Plant response rating, Nutsedge",[20]; [24],0
same,"Plant response rating, Nutsedge",[20]; [26],0
same,"Plant response rating (0 to 100), Nutsedge",[20]; preemergence,40
same,"Plant response rating, Nutsedge",[20]; [27],0
same,"Plant response rating (0 to 100), Sunflower",Sunflower [21],70
O=C1C(n2ccc(C3CCC3)n2)OCN1c1cccc(C(F)(F)F)c1 (stereo not shown) [Compound 39],"Plant response rating, Surinam grass",[1]; [22],0
same,"Plant response rating, Surinam grass",[1]; [23],0
same,"Plant response rating, Barnyardgrass",[2]; [22],0
same,"Plant response rating, Barnyardgrass",[2]; [23],100
same,"Plant response rating, Blackgrass",[3]; [22],0
same,"Plant response rating, Blackgrass",[3]; [23],0
same,"Plant response rating, Cocklebur",[4]; [22],0
same,"Plant response rating, Cocklebur",[4]; [23],0
same,"Plant response rating, Corn",corn (Zea mays) [5]; [22],0
same,"Plant response rating, Corn",corn (Zea mays) [5]; [23],10
same,"Plant response rating, Crabgrass",[6]; [22],0
same,"Plant response rating, Crabgrass",[6]; [23],70
same,"Plant response rating, Foxtail, Giant",[7]; [22],0
same,"Plant response rating, Foxtail, Giant",[7]; [23],0
same,"Plant response rating, Lambsquarters",[8]; [22],70
same,"Plant response rating, Lambsquarters",[8]; [23],90
same,"Plant response rating, Morningglory",[9]; [22],0
same,"Plant response rating, Morningglory",[9]; [23],0
same,"Plant response rating, Pigweed",[10]; [22],60
same,"Plant response rating, Pigweed",[10]; [23],90
same,"Plant response rating, Velvetleaf",[11]; [22],0
same,"Plant response rating, Velvetleaf",[11]; [23],0
same,"Plant response rating, Wheat",[12]; [22],0
same,"Plant response rating, Wheat",[12]; [23],0
same,"Plant response rating, Wild Oat",wild oat (Avena fatua); [22],0
same,"Plant response rating, Wild Oat",wild oat (Avena fatua); [23],0
same,"Plant response rating, Sunflower",Sunflower [13]; [24],0
same,"Plant response rating, Sunflower","Sunflower [13]; Rate 500 g/ha, scale 0 to 100",0
same,"Plant response rating, Bermudagrass",[14]; [25],100
same,"Plant response rating, Bermudagrass",[14]; [24],90
same,"Plant response rating (0 to 100 where 0 is no effect and 100 is complete control), Bermudagrass",[14]; preemergence,100
same,"Plant response rating, Bermudagrass",[14]; [27],90
same,"Plant response rating, Corn",corn (Zea mays) [15]; [25],70
same,"Plant response rating, Corn",corn (Zea mays) [15]; [24],0
same,"Plant response rating (0 to 100), Corn",corn (Zea mays) [15]; preemergence,0
same,"Plant response rating, Corn",corn (Zea mays) [15]; [27],0
same,"Plant response rating, Foxtail, Giant",[16]; [25],100
same,"Plant response rating, Foxtail, Giant",[16]; [24],0
same,"Plant response rating (0 to 100), Foxtail, Giant",[16]; preemergence,0
same,"Plant response rating, Foxtail, Giant",[16]; [27],0
same,"Plant response rating, Johnsongrass",[17]; [25],90
same,"Plant response rating, Johnsongrass",[17]; [24],0
same,"Plant response rating (0 to 100), Johnsongrass",[17]; preemergence,70
same,"Plant response rating, Johnsongrass",[17]; [27],0
same,"Plant response rating, Kochia",kochia (Kochia scoparia); [25],90
same,"Plant response rating, Kochia",kochia (Kochia scoparia); [24],0
same,"Plant response rating (0 to 100), Kochia",kochia (Kochia scoparia); preemergence,70
same,"Plant response rating, Kochia",kochia (Kochia scoparia); [27],50
same,"Plant response rating, Morningglory",[18]; [25],0
same,"Plant response rating, Morningglory",[18]; [24],0
same,"Plant response rating (0 to 100), Morningglory",[18]; preemergence,0
same,"Plant response rating, Morningglory",[18]; [27],0
same,"Plant response rating, Velvetleaf",[19]; [25],0
same,"Plant response rating, Velvetleaf",[19]; [24],0
same,"Plant response rating (0 to 100), Velvetleaf",[19]; preemergence,0
same,"Plant response rating, Velvetleaf",[19]; [27],0
same,"Plant response rating, Nutsedge",[20]; [25],40
same,"Plant response rating, Nutsedge",[20]; [24],0
same,"Plant response rating (0 to 100), Nutsedge",[20]; preemergence,0
same,"Plant response rating, Nutsedge",[20]; [27],0
same,"Plant response rating (0 to 100), Sunflower",Sunflower [21],0
